# According to patent US9950071B2, “Hybrid anticancer prodrug simultaneously producing cinnamaldehyde and quinone methide and method for preparing same” (INDUSTRIAL COOPERATION FOUNDATION CHONBUK NATIONAL …, priority 2014, dated 2018):
# What was measured:
# [1] = system: prostate cancer cell line DU145; test: generation of reactive oxygen species by flow cytometry (DCFH-DA); type: cell-based; conditions: DU145, treated 12 hr, compared with cinnamaldehyde
# Description: The prostate cancer cell line DU145 (4×10^5) was inoculated in a 24-well culture plate and cultured for 24 hr, and treated with cinnamaldehyde or QCA for 12 hr. Cells were washed with a new medium twice and resuspended in a 1× binding buffer at a concentration of 1×10^5 cells/mL. 100 μL of the cell suspension was transferred to 5 mL of a culture tube and added with 5 μM of 2′,7′-dichlorofluorescein diacetate (DCFH-DA) and softly mixed. The cells were dark-cultured for 15 min at room temperature and added with 400 μL of the 1× binding buffer. The stained cells were measured by using a flow cytometry (FACS Caliber, Becton Dickinson, San Jose, Calif.) and the result was illustrated in FIG. 8. A total of 1.5×10^4 cells per sample were analyzed.
# DU145 cells = test: flow cytometry with Annexin V-FITC and propidium iodide; type: cell-based; conditions: DU145, treated 24 hr, compared with cinnamaldehyde and Q1
# Description: (§1) Further, in order to support the result of the DNA fragmentation assay, the DU145 and SW620 cells were cultured for 24 hr and treated with cinnamaldehyde, Q1 or QCA for 24 hr and then flow cytometry was performed by using Annexin V-FITC as a marker of apoptosis and propidium iodide (PI) as a marker for […], and the result was illustrated in FIGS. 15 and 16.
# SW620 cells [2] = test: as above; type: cell-based; conditions: SW620, treated 24 hr, compared with cinnamaldehyde and Q1
# Description: as §1
# [3] = system: procaspase-3 and PARP-1 in DU145 cells; test: immunoblot analysis; type: cell-based; conditions: DU145, 8 hr, various concentrations
# Description: (§2) The prostate cancer cell line DU145 and the colorectal cancer cell line SW620 (1×10^6/well) were treated with cinnamaldehyde or QCA for 8 hr at various concentrations and washed with new PBS twice. Proteins were extracted from the cells by using a lysis buffer solution. Electrophoresis was performed by using […] of a cell lysate in a […] and the proteins were transferred to a PVDF membrane (Millipore, Billerica, Mass.). A blot was cultured together with a PARP monoclonal antibody (Santa Cruz Biotechnology, Dallas, Tex.) or caspase-3 (Santa Cruz Biotechnology, Dallas, Tex.) and a HRP-coupled anti-goat antibody (Millipore, Billerica, Mass.) was used as a secondary antibody. An immunoblot signal was verified by using a chemiluminescent reagent (Pierce, Rockford, Ill.) of SuperSignal Ultra and the result thereof was illustrated in FIGS. 11 and 12.
# [4] = system: procaspase-3 and PARP-1 in SW620 cells; test: immunoblot analysis; type: cell-based; conditions: SW620, 8 hr, various concentrations
# Description: as §2
# [5] = system: xenograft mouse model of DU145 and SW620; test: growth and size of tumor in xenograft model; type: in vivo; conditions: for growth inhibition effect of the tumor / size of the tumor: 2 mg/kg through tail vein every 3 days
# Description: In order to verify in vivo anticancer activity of the QCA, a tumor in a xenograft model was observed. First, cancer cells were injected to a side hypodermic tissue of mouse by using a xenograft mouse model of DU145 and SW620 and when the tumor after cell transplantation started to be touched small, cinnamaldehyde, Q1, and cinnamaldehyde and Q1, or QCA was administrated by 2 mg/kg though tail vein every 3 days, and then the size of the tumor in the mouse was measured and the result thereof was illustrated in FIG. 17. Further, different amounts of QCA were administrated to the mouse having the tumor and in order to compare the effect thereof, 2 mg/kg of camptotethin (CPT) as an anticancer agent which was commercialized was administrated in other mouse, and then the size of the tumor of the mouse was measured and the result thereof was illustrated in FIG. 18.
# [6] = toxicity of QCA: ALT evaluation and H&E staining of liver and heart; type: in vivo; conditions: 2 mg/kg, 10 days, once per 2 days
# Description: In order to verify the stability of the QCA, after 2 mg/kg of the QCA was injected to the mouse for 10 days once per 2 days, alanine transaminase (ALT) evaluation and H&E staining of the liver and heart tissues were performed, and the result thereof was illustrated in FIGS. 24 and 25.
# tumor lysate = tumor lysate analysis by LC-MS (generation of QM and cinnamaldehyde); type: in vivo, mouse
# Description: In the tumor, in order to verify whether to generate the QM and the cinnamaldehyde in the tumor, a tumor lysate was analyzed by LC-MS after 22 days and the result thereof was illustrated in FIG. 19.
# [7] = QCA structure after hydrolysis in tumor environment (1H NMR); type: physicochemical
# Description: In a tumor environment, in order to verify a structure of the QCA triggered by double stimulus, the QCA was cultured for 24 hr at pH 5.5 and verified through ^1H NMR and the structure of the QCA was illustrated in FIG. 5.
# [8] = system: colorectal cancer cell line SW620; test: cell GSH level (Ellman's reagent); type: cell-based
# Description: (§3) A prostate cancer cell line DU145, a colorectal cancer cell line SW620, and a fibroblast cell NIH3T3 were inoculated in a 6-well plate (5×10^5/well) to reach 80% confluency. The cell lines were treated with various compounds for 1.5 hr at 37° C. and then, cells were obtained and washed with PBS. Thereafter, the cells were lysed in ice in 40 μL of a Triton X-100 lysis buffer solution. After 20 min, the lysate was centrifuged with 9,000 g and 10 μL of a supernatant was mixed with 50 μL of an Ellman's reagent (0.5 mM DTNB). The amount of GSH was quantified by measuring an absorbance at 405 nm using a microplate reader (Biotek Instruments, Winooski, Vt.). In the treated cells, a percentage of the GSH content was compared with the base GSH content measured in untreated cells, and the result was illustrated in FIG. 7.
# [9] = system: prostate cancer cell line DU145; test: cell GSH level (Ellman's reagent); type: cell-based
# Description: as §3
# fibroblast cell NIH3T3 = test: cell GSH level (Ellman's reagent); type: cell-based; conditions: NIH3T3, 1.5 hr at 37° C., compared with untreated cells
# Description: as §3
# SW620 tumor mouse model = test: histologic examination of tumor (H&E and TUNEL staining); type: in vivo; conditions: 21 days, once per three days
# Description: In order to verify the apoptosis induced by the QCA, in a SW620 tumor mouse model, H&E staining of the tumor was performed after administrating cinnamaldehyde, Q1, the cinnamaldehyde and the Q1, or QCA for 21 days once per three days, and the result thereof was illustrated in FIG. 20. Further, terminal deoxynucleotidyl transferase dUTP nick end labeling (TUNEL) staining of the tumor was performed by the same method, and the result thereof was illustrated in FIG. 21.
# [10] = system: DU145, SW620 and NIH3T3 cells; test: cytotoxicity by MTT assay; type: cell-based; conditions: 24 hr treatment, various amounts
# Description: The cytotoxities of the QCA prepared in Example 1 and the QBCA prepared in Example 2 were measured by an MTT assay. In detail, a prostate cancer cell line DU145, a colorectal cancer cell line SW620, and a fibroblast cell NIH3T3 were inoculated in a 24-well plate with the density of 1×10^5 cells/well, respectively, and cultured for 24 hr to reach up to 90% confluency. The cells were treated with various amounts of QCA, QBCA, Q1, or cinnamaldehyde and cultured for 24 hr. 100 μL of the MTT solution was put each well and the cells were cultured for 4 hr. The generated formazan crystals were dissolved in 200 μL of dimethylsulfoxide. After 10 min of the culture, an absorbance at 570 nm was measured by using a micro plate reader (Biotek Instruments, Winooski, Vt.). A cell survival rate was determined by comparing absorbances of cells in a control group and QCA or QBCA-treated cells, and the results were illustrated in FIGS. 9 and 10.
# SW620 cells [11] = test: DNA fragmentation assay (electrophoresis); type: cell-based
# Description: In order to verify an effect of the QCA on the DNA fragments, a DNA fragmentation assay of SW620 was performed. First, the DU145 and SW620 cells were cultured for 24 hr and then treated with 100 μm of cinnamaldehyde, 100 μm of Q1 (4-(1,3,2-dioxaborinan-2-yl)benzyl carbonate, and generating only quinone methide), and 25 μm, 50 μm, 100 μm of the QCA to isolate the DNA and the fragmentation of the nucleosomal DNA was observed by electrophoresis, and the result thereof was illustrated in FIG. 13.
# Further, hereinabove, the DNA fragments of the SW620 treated with 100 μm of the QCA were analyzed over time and the result thereof was illustrated in FIG. 14.
# liver and heart tissues = test: organ damage, H&E and TUNEL staining of liver and heart tissues; type: in vivo, mouse; conditions: 21 days, once per three days
# [12] = in vivo; cited from earlier work
compound,measurement,setting,value
"CC1(COC(=O)OCc2ccc(B3OCCCO3)cc2)COC(/C=C/c2ccccc2)OC1 (stereo not shown) [QCA, 4-(1,3,2-dioxaborinan-2-yl)benzyl ((5-methyl-2-styryl-1,3-dioxan-5-yl)methyl)carbonate]",apoptosis / cell toxicity by ROS generation (FIG. 8),[1],much higher cell toxicity than the cinnamaldehyde
same,apoptosis (Annexin V / PI),DU145 cells,faster apoptosis than the cinnamaldehyde and Q1-treated cells
same,apoptosis (Annexin V / PI),SW620 cells [2],faster apoptosis than the cinnamaldehyde and Q1-treated cells
same,expression of PARP-1,[3],concentration-dependently reduced
same,expression of procaspase-3,[3],concentration-dependently reduced
same,expression of PARP-1,[4],concentration-dependently reduced
same,expression of procaspase-3,[4],concentration-dependently reduced
same,growth inhibition effect of the tumor / size of the tumor,[5],significantly smaller size of the tumor
same,anticancer activity (size of the tumor),[5]; QCA 1 mg/kg or less,a different anticancer activity was not shown
same,anticancer activity (size of the tumor),"[5]; QCA 2 mg/kg, compared with 2 mg/kg CPT",prominent anticancer activity
same,evidence of toxicity accumulated in the liver and the heart (H&E),[6],not observed
same,serum ALT level compared with the untreated mouse,[6],a little difference
same,QM and cinnamaldehyde in the liver,"tumor lysate; liver, after 22 days",not detected
same,GSH value in tumor lower than the tumor of the untreated mouse,tumor lysate; tumor lysate after 22 days,up to 38%
same,generation of cinnamaldehyde in the tumor,"tumor lysate; tumor lysate after 22 days, new peak same as cinnamaldehyde treatment",cinnamaldehyde was generated
same,boronate oxidation and formation of hydroxybenzyl alcohol (1H NMR),"[7]; H2O2-mediated, peaks 6.9 and 6.4 ppm",formation of hydroxybenzyl alcohol and oxidation of H2O2-mediated boronate were verified
same,release of cinnamaldehyde by acetal bond cleavage (1H NMR),"[7]; cultured 24 hr at pH 5.5, aldehyde peak 9.4 ppm",cinnamaldehyde generated while an acetal bond was broken
same,GSH level at 50 μM,"[8]; SW620, 50 μM",Most of GSH was depleted
same,further reduction of the GSH at 100 μM,"[8]; SW620, 100 μM",not further observed
same,GSH level,"[8]; SW620, 1.5 hr at 37° C., compared with untreated cells",significantly reduced in a dose-dependent manner
same,GSH level at 50 μM,"[9]; DU145, 50 μM",Most of GSH was depleted
same,further reduction of the GSH at 100 μM,"[9]; DU145, 100 μM",not further observed
same,GSH level,"[9]; DU145, 1.5 hr at 37° C., compared with untreated cells",significantly reduced in a dose-dependent manner
same,GSH level,fibroblast cell NIH3T3,no effect
same,"apoptosis in tumor tissue (H&E, TUNEL)",SW620 tumor mouse model,apoptosis of no-nuclear cells was widely shown
same,"cytotoxicity (cell survival rate, MTT)",[10],increased according to a concentration
same,amount of the DNA fragments over time,"SW620 cells [11]; SW620, 100 μm QCA, over time",gradually increased in a concentration and time-dependent manner
same,DNA fragments (nucleosomal DNA ladder),"SW620 cells [11]; SW620, QCA 25, 50, 100 μm vs 100 μm cinnamaldehyde and 100 μm Q1",more DNA fragments than the cinnamaldehyde and the Q1
same,"organ damage (liver and heart, H&E and TUNEL)",liver and heart tissues,did not induce a particular organ damage
O=CC=Cc1ccccc1 [cinnamaldehyde],half-life,[12],less than 1.5 hr
same,growth inhibition effect of the tumor / size of the tumor,[5],slight
same,change after culture at neutral pH without H2O2,"[7]; 72 hr, neutral pH, without H2O2",any change was not observed
"4-(1,3,2-dioxaborinan-2-yl)benzyl carbonate [Example Q1, reference compound]",growth inhibition effect of the tumor / size of the tumor,[5],slight
"CC1(COC(=O)OCc2ccc(B3OCCCO3)cc2)COC(/C=C/c2ccccc2OC(=O)c2ccccc2)OC1 (stereo not shown) [QBCA, 4-(1,3,2-dioxaborinan-2-yl)benzyl ((5-methyl-2-(2-benzoyloxyphenyl)vinyl-1,3-dioxan-5-yl)methyl)carbonate]","cytotoxicity (cell survival rate, MTT)",[10],increased according to a concentration
